Test system: 282377-053-R-J1-PDC complex spheroid viability
Assay: Anticancer human tumor 282377-053-R-J1-PDC patient-derived colon adenocarcinoma cell line growth inhibition [RAS]
Details: for IC50: curve of first compound; for viability, T/C: stronger effect = lower value
Method in brief: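 Tumour cells grown as complex spheroids with HUVEC endothelial cells and mesenchymal stem cells, treated with RAS pathway inhibitor combinations. Each agent spans half-log steps from near clinical Cmax, or 10 microM where Cmax is unknown.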
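Also: spheroids exposed to agents for seven days before readout.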
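For viability, T/C in this document: luminescence viability as percent of DMSO vehicle control wells.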

SMILES: CC1(C)CCC(Nc2ncc(C(F)(F)F)c(-c3c[nH]c4c(P(C)(C)=O)c(C#N)ccc34)n2)CN1 (centres undefined) + CCn1c(-c2cc(N3CCN(C)CC3)cnc2C(C)OC)c2c3cc(ccc31)-c1csc(n1)CC(NC(=O)C1CC1C)C(=O)N1CCCC(N1)C(=O)OCC(C)(C)C2
- IC50 (second compound 0.000949 µM): > 0.3 µM
- IC50 (second compound 0.003 µM): > 0.3 µM
- IC50 (second compound 0.00949 µM): > 0.3 µM
- IC50 (second compound 0.03 µM): > 0.3 µM
- IC50 (second compound 0.0949 µM): > 0.3 µM
- IC50 (second compound 0.3 µM): > 0.3 µM
- viability, T/C (second compound 0.000949 µM, first compound 0.000949 µM): 104%
- viability, T/C (second compound 0.000949 µM, first compound 0.003 µM): 123%
- viability, T/C (second compound 0.000949 µM, first compound 0.00949 µM): 109%
- viability, T/C (second compound 0.000949 µM, first compound 0.03 µM): 104%
- viability, T/C (second compound 0.000949 µM, first compound 0.0949 µM): 97.8%
- viability, T/C (second compound 0.000949 µM, first compound 0.3 µM): 94.8%
- viability, T/C (second compound 0.003 µM, first compound 0.000949 µM): 98.2%
- viability, T/C (second compound 0.003 µM, first compound 0.003 µM): 135%
- viability, T/C (second compound 0.003 µM, first compound 0.00949 µM): 129%
- viability, T/C (second compound 0.003 µM, first compound 0.03 µM): 99.6%
- viability, T/C (second compound 0.003 µM, first compound 0.0949 µM): 90.2%
- viability, T/C (second compound 0.003 µM, first compound 0.3 µM): 94.9%
- viability, T/C (second compound 0.00949 µM, first compound 0.000949 µM): 116%
- viability, T/C (second compound 0.00949 µM, first compound 0.003 µM): 96.5%
- viability, T/C (second compound 0.00949 µM, first compound 0.00949 µM): 126%
- viability, T/C (second compound 0.00949 µM, first compound 0.03 µM): 91.1%
- viability, T/C (second compound 0.00949 µM, first compound 0.0949 µM): 92%
- viability, T/C (second compound 0.00949 µM, first compound 0.3 µM): 96.3%
- viability, T/C (second compound 0.03 µM, first compound 0.000949 µM): 109%
- viability, T/C (second compound 0.03 µM, first compound 0.003 µM): 104%
- viability, T/C (second compound 0.03 µM, first compound 0.00949 µM): 110%
- viability, T/C (second compound 0.03 µM, first compound 0.03 µM): 101%
- viability, T/C (second compound 0.03 µM, first compound 0.0949 µM): 96.9%
- viability, T/C (second compound 0.03 µM, first compound 0.3 µM): 84.3%
- viability, T/C (second compound 0.0949 µM, first compound 0.000949 µM): 107%
- viability, T/C (second compound 0.0949 µM, first compound 0.003 µM): 118%
- viability, T/C (second compound 0.0949 µM, first compound 0.00949 µM): 124%
- viability, T/C (second compound 0.0949 µM, first compound 0.03 µM): 110%
- viability, T/C (second compound 0.0949 µM, first compound 0.0949 µM): 119%
- viability, T/C (second compound 0.0949 µM, first compound 0.3 µM): 76.7%
- viability, T/C (second compound 0.3 µM, first compound 0.000949 µM): 136%
- viability, T/C (second compound 0.3 µM, first compound 0.003 µM): 144%
- viability, T/C (second compound 0.3 µM, first compound 0.00949 µM): 145%
- viability, T/C (second compound 0.3 µM, first compound 0.03 µM): 113%
- viability, T/C (second compound 0.3 µM, first compound 0.0949 µM): 108%
- viability, T/C (second compound 0.3 µM, first compound 0.3 µM): 88.2%

SMILES: CC1(O)CCCC1n1c(=O)c(C(F)F)cc2cnc(NC3CCN(S(C)(=O)=O)CC3)nc21 (centres undefined) + CCn1c(-c2cccnc2C(C)OC)c2c3cc(ccc31)N1CCOC(CC(NC(=O)C(C(C)C)N(C)C(=O)C3(F)CCN(C(=O)C#CC(C)(C)N(C)C)CC3)C(=O)N3CCCC(N3)C(=O)OCC(C)(C)C2)C1
- IC50 (second compound 0.000949 µM): 6.89 µM
- IC50 (second compound 0.003 µM): 7.15 µM
- IC50 (second compound 0.00949 µM): 7.05 µM
- IC50 (second compound 0.03 µM): 6.9 µM
- IC50 (second compound 0.0949 µM): 7.3 µM
- IC50 (second compound 0.3 µM): 6.87 µM
- viability, T/C (second compound 0.000949 µM, first compound 0.0316 µM): 118%
- viability, T/C (second compound 0.000949 µM, first compound 0.1 µM): 112%
- viability, T/C (second compound 0.000949 µM, first compound 0.316 µM): 171%
- viability, T/C (second compound 0.000949 µM, first compound 1 µM): 144%
- viability, T/C (second compound 0.000949 µM, first compound 3.16 µM): 159%
- viability, T/C (second compound 0.000949 µM, first compound 10 µM): 6.67%
- viability, T/C (second compound 0.003 µM, first compound 0.0316 µM): 129%
- viability, T/C (second compound 0.003 µM, first compound 0.1 µM): 128%
- viability, T/C (second compound 0.003 µM, first compound 0.316 µM): 140%
- viability, T/C (second compound 0.003 µM, first compound 1 µM): 131%
- viability, T/C (second compound 0.003 µM, first compound 3.16 µM): 218%
- viability, T/C (second compound 0.003 µM, first compound 10 µM): 8.84%
- viability, T/C (second compound 0.00949 µM, first compound 0.0316 µM): 122%
- viability, T/C (second compound 0.00949 µM, first compound 0.1 µM): 97%
- viability, T/C (second compound 0.00949 µM, first compound 0.316 µM): 153%
- viability, T/C (second compound 0.00949 µM, first compound 1 µM): 156%
- viability, T/C (second compound 0.00949 µM, first compound 3.16 µM): 199%
- viability, T/C (second compound 0.00949 µM, first compound 10 µM): 8.76%
- viability, T/C (second compound 0.03 µM, first compound 0.0316 µM): 105%
- viability, T/C (second compound 0.03 µM, first compound 0.1 µM): 111%
- viability, T/C (second compound 0.03 µM, first compound 0.316 µM): 153%
- viability, T/C (second compound 0.03 µM, first compound 1 µM): 159%
- viability, T/C (second compound 0.03 µM, first compound 3.16 µM): 165%
- viability, T/C (second compound 0.03 µM, first compound 10 µM): 7.79%
- viability, T/C (second compound 0.0949 µM, first compound 0.0316 µM): 121%
- viability, T/C (second compound 0.0949 µM, first compound 0.1 µM): 120%
- viability, T/C (second compound 0.0949 µM, first compound 0.316 µM): 201%
- viability, T/C (second compound 0.0949 µM, first compound 1 µM): 181%
- viability, T/C (second compound 0.0949 µM, first compound 3.16 µM): 214%
- viability, T/C (second compound 0.0949 µM, first compound 10 µM): 5.91%
- viability, T/C (second compound 0.3 µM, first compound 0.0316 µM): 111%
- viability, T/C (second compound 0.3 µM, first compound 0.1 µM): 129%
- viability, T/C (second compound 0.3 µM, first compound 0.316 µM): 146%
- viability, T/C (second compound 0.3 µM, first compound 1 µM): 155%
- viability, T/C (second compound 0.3 µM, first compound 3.16 µM): 158%
- viability, T/C (second compound 0.3 µM, first compound 10 µM): 6.46%
